Data reported in patent US5519012A, “Inclusion complexes of optically active 1,4-dihydropyridines with methyl-β-cyclodextrin” (LEK, tovarna farmacevtskih in kemicnih izdelkov, d.d., …, priority 1992, dated 1996).
Values after ≈ are worked out from the molar mass of the structure shown. Structures can show the parent of a compound that is named as a salt.

How the values were obtained:
[1] = physchem; details: water
[2] = Water solubility of racemic and optically active dihydropyridines, free or bound in inclusion complexes (room temperature, filtrates of saturated solutions, liquid chromatography); details: for Water solubility, complex. HE-β-CD: bound in inclusion complex with HE-β-CD (2-hydroxyethyl-cyclodextrin); for Water solubility, complex. HP-β-CD: bound in inclusion complex with HP-β-CD (2-hydroxypropyl-cyclodextrin); for Water solubility, complex. Me-β-CD: bound in inclusion complex with Me-β-CD; for Water solubility, complex. β-CD: bound in inclusion complex with β-CD; for Water solubility of particular enantiomers (in words): (-) compared with (+) nicardipine.HCl; for Water solubility, uncomplex.: free form
[3] = one enantiomer versus the other; literature; cited from earlier work
[4] = by means of DIMEB (heptakis-(2,6-di-O-dimethyl)-β-cyclodextrin); cited from earlier work

Structure (SMILES): COC(=O)C1=C(C)NC(C)=C(C(=O)OCCN(C)Cc2ccccc2)C1c1cccc([N+](=O)[O-])c1 (racemic) [(±)nicardipine.HCl, 2-(N-benzyl-N-methyl-amino)-ethylmethyl-2,6-dimethyl-4-(3-nitrophenyl) -1,4-dihydropyridine-3,5-dicarboxylatehydrochloride]
- solubility [1]: 1.5 mg/mL
- Water solubility, complex. HE-β-CD ([2]; room temperature): 53.8 mg/mL
- Water solubility, complex. HP-β-CD ([2]; room temperature): 97.9 mg/mL
- Water solubility, complex. Me-β-CD ([2]; room temperature): 145.8 mg/mL
- Water solubility, complex. β-CD ([2]; room temperature): 54.8 mg/mL

Structure (SMILES): CCOC(=O)C1=C(C)NC(C)=C(C(=O)OC)C1c1cccc([N+](=O)[O-])c1 (racemic) [(±)nitrendipine, 3-ethyl-5-methyl-1,4-dihydro-2,6-dimethyl-4-(3-nitrophenyl)-3,5-pyridinedicarboxylate]
- solubility [1]: 0.0006 mg/mL (≈ 1.66 µM)

Structure (SMILES): CCOC(=O)C1=C(COCCN)NC(C)=C(C(=O)OC)[C@H]1c1ccccc1Cl (single isomer, unassigned) [R-(-) isomer of amlodipine]
- activity relative to the other enantiomer [3]: substantially higher activity

Structure (SMILES): COC(=O)C1=C(C)NC(C)=C(C(=O)OCCN(C)Cc2ccccc2)C1c1cccc([N+](=O)[O-])c1 (single isomer, unassigned; (+)) [(+) nicardipine]
- activity relative to the other enantiomer [3]: three times higher activity

Structure (SMILES): COC(=O)C1=C(C)NC(C)=C(C(=O)OCCN(C)Cc2ccccc2)C1c1cccc([N+](=O)[O-])c1 (single isomer, unassigned; (+)) [(+)nicardipine.HCl]
- Water solubility of particular enantiomers (in words) [2]: different water solubilities
- Water solubility, complex. HE-β-CD ([2]; room temperature): 52.7 mg/mL
- Water solubility, complex. HP-β-CD ([2]; room temperature): 59.9 mg/mL
- Water solubility, complex. Me-β-CD ([2]; room temperature): 133.1 mg/mL
- Water solubility, complex. β-CD ([2]; room temperature): 15.8 mg/mL
- Water solubility, uncomplex. ([2]; room temperature): 0.4 mg/mL

Structure (SMILES): COC(=O)C1=C(C)NC(C)=C(C(=O)OCCN(C)Cc2ccccc2)C1c1cccc([N+](=O)[O-])c1 (single isomer, unassigned; (-)) [(-)nicardipine.HCl]
- Water solubility of particular enantiomers (in words) [2]: different water solubilities
- Water solubility, complex. HE-β-CD ([2]; room temperature): 54.2 mg/mL
- Water solubility, complex. HP-β-CD ([2]; room temperature): 68.0 mg/mL
- Water solubility, complex. Me-β-CD ([2]; room temperature): 127.4 mg/mL
- Water solubility, complex. β-CD ([2]; room temperature): 15.6 mg/mL
- Water solubility, uncomplex. ([2]; room temperature): 0.1 mg/mL
- Water solubility, complex. HP-β-CD (molar ratio 1:2) ([2]; molar ratio of the complex (-)NC.HCl:HP CD amounts to 1:2, room temperature): 130.0 mg/mL

Structure (SMILES): CCOC(=O)C1=C(COCCN)NC(C)=C(C(=O)OC)C1c1ccccc1Cl (centres unmarked) [amlodipine besylate, 3-ethyl-5-methyl-2-[(2-aminoethoxy)methyl]-4-(2-chlorophenyl) 1,4-dihydro-6-methyl-3,5-pyridinedicarboxylate-monobenzensulfonate]
- solubility [1]: 1.1 mg/mL
- Water solubility, complex. HE-β-CD ([2]; room temperature): 4.5 mg/mL
- Water solubility, complex. HP-β-CD ([2]; room temperature): 17.0 mg/mL
- Water solubility, complex. Me-β-CD ([2]; room temperature): 25.0 mg/mL
- Water solubility, complex. β-CD ([2]; room temperature): 10.0 mg/mL
- Water solubility (in words) ([2]; comparison in words, inclusion complexes with Me-β-CD): improved water solubility

Structure (SMILES): CCOC(=O)C1=C(C)NC(C)=C(C(=O)OC)C1c1cccc(Cl)c1Cl (centres unmarked) [felodipine, ethylmethyl-1,4-dihydro-2,6-dimethyl-4-(2,3-dichlorophenyl)-3,5-pyridinedicarboxylate]
- solubility [1]: 0.0008 mg/mL (≈ 2.08 µM)

Structure (SMILES): COc1ccc2c(c1)c(CC(=O)O)c(C)n2C(=O)c1ccc(Cl)cc1 [indometacin]
- enhancement of water solubility [4]: 20.4 times
